US4327213A, “Alpha-hydrocarbonoxyimino-pyrazineacetonitriles” (ACF Chemiefarma VA, priority 1977, dated 1982)
Like-named read-outs stand apart in the source and are kept apart here.

Legend:
[1] = system: indomethacin-induced gastric damage; assay: Inhibition of indomethacin-induced gastric damage in the rat (anti-ulcer activity, method of Elegbe); type: in vivo; conditions: po, 5 h, indomethacin 15 mg/kg s.c., compound 100 mg/kg orally, 30 min prior to and 2 h post indomethacin, read-out: Table 1 % Inhibition (mean inhibition of gastric damage)
Experimental: This was assessed by the inhibition of indomethacin-induced gastric damage in the rat according to the method of Elegbe (Israeli J. Med. Sci. (1974), 10, 1451).
Rats were starved overnight, given indomethacin subcutaneously (15 mg/kg) and sacrificed 5 hours later. Stomachs were inflated with 0.9% saline, cut along the greater curvature, pinned out and scored for gastric damage by the following system:
Score 1-3 according to the degree of erythema and slight haemorrhage.
Score 4-6 according to degree of mucosal erosion.
Score 7-9 according to depth of gastric damage.
Groups of 7 rats were used for each treatment level of compound, and a similar group receiving vehicle only was set up on each occasion of testing. Compound or vehicle was administered orally 30 minutes prior to, and at 2 hours post, dosing with indomethacin. Mean values per treatment were obtained using the above scoring system and the Mann Witney test applied for significance between such values. The mean inhibition of gastric damage from a number of experiments is shown in the following Table 1; the dosage being 100 mg/kg orally.

Acute toxicity in mice = conditions: mouse, in vivo
Experimental: (§1) 5 (Z-isomer) up to 536 or 824 mg/kg in mice and rats respectively. The acute oral median lethal dose of compound no. 5 is 1268 mg/kg in male mice and 2311 mg/kg in male rats.

Acute toxicity in rats = conditions: rat, in vivo
Experimental: as §1

gastric secretion [2] = assay: Effects on gastric secretion in the pyloric ligated rat (method of Shay et al.); type: in vivo; conditions: intraduodenal, 100 mg/kg i.d., sacrificed 3 hours later
Experimental: 2. Effects on Gastric Secretion, in the Pyloric Ligated Rat
The method described by Shay, et al. (Gastroenterol (1945) 26, 906) was used. After overnight starvation the pylorus of a rat was ligated under halothane anaesthesia, the Compound vehicle only administered intraduodenally and the rats allowed to recover. They were sacrificed 3 hours later and the gastric juice removed. After measurement of the volume of secretion, its hydrogen ion concentration, [H^+ ], was determined by titration with 0.05 N NaOH to pH 7. Groups of 4-6 animals were used for each treatment and the inhibitory effect of the Compound was ascertained by comparison of the mean values obtained with those from a simultaneously set up control group of animals which received vehicle only. Students `t` test was applied for significance between groups. The mean values for % inhibition obtained for a number of experiments are shown in the following Table 2, the dosage being 100 mg/kg i.d.

gastric secretion [3] = assay: as above; type: in vivo; conditions: intraduodenal, 50 mg/kg i.d., sacrificed 3 hours later
[4] = read-out: Table 2 % Inhibition Volume (volume of gastric secretion)
[5] = read-out: Table 2 % Inhibition [H^+ ] (hydrogen ion concentration)

Structure (SMILES): CO/N=C(/C#N)c1cnccn1 [5 (E-isomer), α-Methoxyiminopyrazineacetonitrile]
- inhibition in vivo at 100 mg/kg [1]: 96%

Structure (SMILES): CO/N=C(\C#N)c1cnccn1 [5 (Z-isomer), α-Methoxyiminopyrazineacetonitrile]
- NOAEL (Acute toxicity in mice; mice, single doses, read-out: Single dose up to which no adverse effects were seen): ≥ 536 mg/kg
- NOAEL (Acute toxicity in rats; rats, single doses, read-out: Single dose up to which no adverse effects were seen): ≥ 824 mg/kg
- inhibition in vivo at 100 mg/kg (gastric secretion [2]; [4]): 70%
- inhibition in vivo at 100 mg/kg (gastric secretion [2]; [5]): 73%
- inhibition in vivo at 100 mg/kg [1]: 94%

Structure (SMILES): CON=C(C#N)c1ccccn1 [6 a]
- inhibition in vivo at 100 mg/kg (gastric secretion [2]; [4]): 62%
- inhibition in vivo at 100 mg/kg [1]: 62%

Structure (SMILES): CON=C(C#N)c1cccc(Cl)n1 [6 aa]
- inhibition in vivo at 100 mg/kg (gastric secretion [2]; [4]): 35%
- inhibition in vivo at 100 mg/kg (gastric secretion [2]; [5]): 23%

Structure (SMILES): CCO/N=C(\C#N)c1cnccn1 [6 b]
- inhibition in vivo at 100 mg/kg (gastric secretion [2]; [4]): 66%
- inhibition in vivo at 100 mg/kg (gastric secretion [2]; [5]): 60%
- inhibition in vivo at 100 mg/kg [1]: 68%

Structure (SMILES): CON=C(C#N)c1cccnc1 [6 bb]
- inhibition in vivo at 100 mg/kg [1]: 72%

Structure (SMILES): CC(C)O/N=C(\C#N)c1cnccn1 [6 c]
- inhibition in vivo at 100 mg/kg (gastric secretion [2]; [4]): 52%
- inhibition in vivo at 100 mg/kg [1]: 43%

Structure (SMILES): CON=C(C#N)c1ccncc1 [6 cc]
- inhibition in vivo at 100 mg/kg (gastric secretion [2]; [4]): 80%
- inhibition in vivo at 100 mg/kg (gastric secretion [2]; [5]): 39%
- inhibition in vivo at 100 mg/kg [1]: 95%

Structure (SMILES): CCCCO/N=C(\C#N)c1cnccn1 [6 d]
- inhibition in vivo at 100 mg/kg [1]: 50%

Structure (SMILES): CON=C(C#N)c1cncnc1 [6 dd]
- inhibition in vivo at 100 mg/kg (gastric secretion [2]; [4]): 35%
- inhibition in vivo at 100 mg/kg (gastric secretion [2]; [5]): 39%
- inhibition in vivo at 100 mg/kg [1]: 77%

Structure (SMILES): N#C/C(=N\OC1CCCCC1)c1cnccn1 [6 e]
- inhibition in vivo at 100 mg/kg (gastric secretion [2]; [4]): 62%
- inhibition in vivo at 100 mg/kg (gastric secretion [2]; [5]): 48%

Structure (SMILES): CO/N=C(\C#N)c1ccc2ccccc2n1 [6 ee]
- inhibition in vivo at 100 mg/kg (gastric secretion [2]; [4]): 28%
- inhibition in vivo at 100 mg/kg [1]: 84%

Structure (SMILES): CO/N=C(\C#N)c1ccc2cc(C)ccc2n1 [6 ff]
- inhibition in vivo at 100 mg/kg [1]: 42%

Structure (SMILES): CO/N=C(\C#N)c1ccc2ccc(C)cc2n1 [6 gg]
- inhibition in vivo at 100 mg/kg [1]: 42%

Structure (SMILES): CO/N=C(\C#N)c1ccnc2ccccc12 [6 ll]
- inhibition in vivo at 100 mg/kg (gastric secretion [2]; [4]): 85%
- inhibition in vivo at 100 mg/kg (gastric secretion [2]; [5]): 23%
- inhibition in vivo at 100 mg/kg [1]: 85%

Structure (SMILES): CO/N=C(\C#N)c1nccc2ccccc12 [6 mm]
- inhibition in vivo at 100 mg/kg (gastric secretion [2]; [4]): 28%
- inhibition in vivo at 100 mg/kg [1]: 42%

Structure (SMILES): CO/N=C(\C#N)c1cnc2ccccc2n1 [6 nn]
- inhibition in vivo at 100 mg/kg (gastric secretion [2]; [4]): 28%
- inhibition in vivo at 100 mg/kg [1]: 79%

Structure (SMILES): CO/N=C(/C#N)c1cnc2ccccn12 [6 qq]
- inhibition in vivo at 100 mg/kg (gastric secretion [2]; [4]): 77%
- inhibition in vivo at 100 mg/kg (gastric secretion [2]; [5]): 29%
- inhibition in vivo at 100 mg/kg [1]: 100%

Structure (SMILES): CO/N=C(\C(N)=S)c1ccccn1 [8 (and 10), α-Methoxyimino-2-pyridinethioacetamide]
- inhibition in vivo at 50 mg/kg (gastric secretion [3]; [4]): 32%
- inhibition in vivo at 50 mg/kg (gastric secretion [3]; [5]): 24%
- inhibition in vivo at 100 mg/kg [1]: 74%

Structure (SMILES): CO/N=C(\C(N)=O)c1ccccn1 [9 b]
- inhibition in vivo at 100 mg/kg (gastric secretion [2]; [4]): 26%
- inhibition in vivo at 100 mg/kg [1]: 56%

Structure (SMILES): CO/N=C(/C(N)=O)c1ccccn1 [9 c]
- inhibition in vivo at 100 mg/kg (gastric secretion [2]; [4]): 40%
- inhibition in vivo at 100 mg/kg [1]: 65%

Structure (SMILES): CON=Cc1cnccn1 [12 (and 13), Pyrazine carboxaldehyde, O-methyl oxime]
- inhibition in vivo at 100 mg/kg (gastric secretion [2]; [4]): 42%
- inhibition in vivo at 100 mg/kg [1]: 66%

Structure (SMILES): CO/N=C(\C#N)c1c[n+]([O-])ccn1 [14 a]
- inhibition in vivo at 100 mg/kg (gastric secretion [2]; [4]): 50%
- inhibition in vivo at 100 mg/kg (gastric secretion [2]; [5]): 34%
- inhibition in vivo at 100 mg/kg [1]: 91%

Structure (SMILES): CON=C(C#N)c1cnccn1 [Compound 5, α-Methoxyiminopyrazineacetonitrile]
- LD50 (Acute toxicity in mice; male mice, oral, read-out: Acute oral median lethal dose): 1270 mg/kg
- LD50 (Acute toxicity in rats; male rats, oral, read-out: Acute oral median lethal dose): 2310 mg/kg

Structure (SMILES): CON=C(c1ccccn1)C(F)(F)F [Compound 7, 2-Pyridinyl trifluoromethyl ketone, O-methyl oxime]
- inhibition in vivo at 100 mg/kg (gastric secretion [2]; [4]): 74%
- inhibition in vivo at 100 mg/kg (gastric secretion [2]; [5]): 33%

Structure (SMILES): CO/N=C(\C#N)c1c[n+](C)ccn1 [Compound 15, α-Methoxyimino-2-pyrazineacetonitrile-4-methiodide]
- inhibition in vivo at 100 mg/kg [1]: 55%
